Experiment [1] deals with rhythmic bladder voiding contractions. In words: Volume-induced rhythmic bladder voiding contractions in anaesthetized rats. In kind it is in vivo, rat. The following applies: for ED (10 min disappearance of contractions) / ED50: Rattus norvegicus; for ED (10 min disappearance of contractions): read-out: ED10 min; for pharmacological activity on bladder voiding contractions (in words): nitro group at position 3 or 4 of the aniline ring. Here is the method:
Female Sprague Dawley rats weighing 225-275 g (Crl: CDo BR, Charles River Italia) were used. The animals were housed with free access to food and water and were maintained on a forced 12 h alternating light-dark cycle at 22-24° C. for at least one week, except during the experiment. The activity on the rhythmic bladder voiding contractions was evaluated according to the method of Dray (J. Pharmacol. Methods, 13:157, 1985), with some modifications as in Guarneri (Pharmacol. Res., 27:173, 1993). Briefly, rats were anesthetized by subcutaneous injection of 1.25 g/kg (5 ml/kg) urethane, after which the urinary bladder was catheterized via the urethra using PE 50 polyethylene tubing filled with physiological saline. The catheter was tied in place with a ligature around the external urethral orifice and was connected with conventional pressure transducers (Statham P23 ID/P23 XL). […] The bladder was then filled via the recording catheter by incremental volumes of warm (37° C.) saline until reflex bladder voiding contractions occurred (usually 0.8-1.5 ml). For intravenous (i.v.) injection of bioactive compounds, PE 50 polyethylene tubing filled with physiological saline was inserted into the jugular vein. From the cystometrogram, the number of contractions recorded 15 min before (basal values) and after treatment, as well as the mean amplitude of these contractions (mean height of the peaks in mmHg) was evaluated.
Since most compounds produced an effect that was relatively rapid in onset and led to a complete cessation of bladder contractions, bioactivity was conveniently estimated by measuring the duration of bladder quiescence (i.e., the duration of time during which no contractions occurred). The number of animals tested showing a reduction in the number of contractions >30% of that observed in the basal period was also recorded.
Also computed in this manner were extrapolated doses which induced a reduction of the number of contractions of greater than 30% in 50% of treated rats (ED50, frequency) by the method of Bliss (Bliss C. I., Quart. J. Pharm. Pharmacol. 11, 192-216, 1938). After the suppressive effects of drug injection wore off, the height of the contractile peaks was compared with the height of the peaks previously recorded after the control intravenous administration of vehicle. The potency of the tested compounds (ED50 value: the extrapolated doses inducing a 30% reduction of amplitude of the contractions in 50% of treated rats) was evaluated on a quantal basis by the method of Bliss (Bliss C. I., Quart. J. Pharm. Pharmacol. 11, 192-216, 1938).

Experiment [2] deals with T1, human 5-HT1A serotonergic receptor (Homo sapiens, UniProt P08908).
T1 construct: expressed in transfected cells; host or cells: HeLa
T1 sequence (P08908 1-422): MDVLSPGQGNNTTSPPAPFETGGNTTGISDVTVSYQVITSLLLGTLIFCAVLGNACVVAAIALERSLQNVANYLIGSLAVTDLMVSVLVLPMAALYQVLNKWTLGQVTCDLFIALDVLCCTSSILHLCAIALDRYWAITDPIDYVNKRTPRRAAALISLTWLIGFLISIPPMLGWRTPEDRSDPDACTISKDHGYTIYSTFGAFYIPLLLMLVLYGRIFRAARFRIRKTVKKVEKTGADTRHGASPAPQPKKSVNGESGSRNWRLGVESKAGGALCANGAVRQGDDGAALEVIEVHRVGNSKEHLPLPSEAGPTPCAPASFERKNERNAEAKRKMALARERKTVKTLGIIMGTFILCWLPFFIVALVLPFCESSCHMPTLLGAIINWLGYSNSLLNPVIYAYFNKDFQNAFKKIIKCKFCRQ
Put plainly: Radioreceptor binding, recombinant human 5-HT1A receptors ([3H]8-OH-DPAT, HeLa membranes). The following applies: recombinant human receptor, [3H]8-OH-DPAT; Ki from IC50 by Cheng & Prusoff; read-out: Binding affinity for the 5-HT1A receptor, Ki. Here is the method:
Genomic clone G-21 coding for the human 5-HT1A serotonergic receptor is stably transfected in a human cell line (HeLa). HeLa cells were grown as monolayers in Dulbecco's modified Eagle's medium (DMEM), supplemented with 10% fetal calf serum and gentamicin ([…]), 5% CO2 at 37° C. Cells were detached from the growth flask at 95% confluence by a cell scraper and were lysed in ice-cold 5 mM Tris and 5 mM EDTA buffer (pH 7.4). Homogenates were centrifuged at 40000×g×20 min and pellets were resuspended in a small volume of ice-cold 5 mM Tris and 5 mM EDTA buffer (pH 7.4) and immediately frozen and stored at −70° C. until use. On the day of experiment, cell membranes were resuspended in binding buffer: 50 mM Tris HCl (pH 7.4), 2.5 mM MgCl2, 10 μM pargiline (Fargin et al., Nature 335, 358-360, 1988). Membranes were incubated in a final volume of 1 ml for 30 min at 30° C. with 0.2-1 nM [3H]8-OH-DPAT, in absence or presence of competing drugs; non-specific binding was determined in the presence of 10 μM 5-HT. The incubation was stopped by addition of ice-cold Tris-HCl buffer and rapid filtration through 0.2% polyethyleneimine pretreated Whatman GF/B or Schleicher & Schuell GF52 filters.
The inhibition of specific binding of the radioligands by the tested drugs was analyzed to estimate the IC50 value by using the non-linear curve-fitting program Allfit (De Lean et al., Am. J. Physiol. 235, E97-E102, 1978). The IC50 value was converted to an affinity constant (Ki) by the equation of Cheng & Prusoff (Cheng, Y. C.; Prusoff, W. H. Biochem. Pharmacol. 22, 3099-3108, 1973).

For experiment [3], the system named is urinary bladder. In words: Cystometric parameters (cystometrogram) in conscious rats. In kind it is in vivo, rat. The following applies: for BVC after treatment / MP after treatment: mean ± S.E.; for change in vivo at 0.1 mg/kg / change in vivo at 0.3 mg/kg / change in vivo at 1 mg/kg: Rattus norvegicus, iv, 0.25 h, after vs before; for change in vivo at 0.1 mg/kg: i.v. 100 μg/kg; for change in vivo at 0.3 mg/kg: i.v. 300 μg/kg; for change in vivo at 1 mg/kg: i.v. 1000 μg/kg. Here is the method: Male Sprague Dawley rats (Crl: CDo BR) weighing 250-350 g were used. The animals were housed with free access to food and water and maintained on a forced 12 h alternating light-dark cycle at 22-24° C. for at least one week, except during performance of the experiment. To quantify urodynamic parameters in conscious rats, cystometrographic studies were performed using procedures previously described (Guarneri et al., Pharmacol. Res., 24:175, 1991). […] An approximately 10 mm long midline incision was made in the shaved and cleaned abdominal wall. The urinary bladder was gently freed from adhering tissues, emptied, and then cannulated, via an incision at the dome, with a polyethylene cannula (Portex PP30), which was permanently sutured with silk thread. The cannula was exteriorized through a subcutaneous tunnel in the retroscapular area, where it was connected with a plastic adapter to avoid the risk of removal by the animal. For intravenous (i.v.) injection of test compounds, a PE 50 polyethylene tubing filled with physiological saline was inserted into the jugular vein and exteriorized in the retroscapular area. The rats were utilized exclusively one day after implantation. On the day of the experiment, the rats were placed in Bollman's cages, after a stabilization period of 20 min, and the free tip of the bladder catheter was connected through a T-shaped tube to a pressure transducer (Bentley T 800/Marb P 82) and to a peristaltic pump (Gilson minipuls 2) for a continuous infusion, at the constant rate of 0.1 ml/min, of saline solution into the urinary bladder. The intraluminal pressure signal during infusion was continuously recorded on a polygraph (Battaglia Rangoni KO 380 with ADCl/T amplifier).
Two urodynamic parameters were evaluated: bladder volume capacity (BVC) and micturition pressure (MP). BVC (in ml) is defined as the minimum volume infused after which detrusor contraction (followed by micturition) occurs. MP (in mm Hg) is defined as the maximal intravesical pressure induced by the contraction of detrusor during micturition. Basal BVC and MP values were calculated as the means of the first two recorded cystometrograms. At this point in the assay, the infusion was interrupted and the test compounds were administered. Fifteen minutes after intravenous administration two additional cystometrograms were recorded in each animal and the mean values of the two cystometrographic parameters were calculated. The statistical significance of the differences in urodynamic parameter values was evaluated by Student's t test for paired data.

Setting [4] is: extrapolated dose inducing 10 min of disappearance of the contractions, intravenous, anaesthetized rats.
[5] abbreviates: extrapolated dose inducing a reduction of the number of contractions >30% in 50% of treated rats, intravenous, read-out: ED50 (frequency).

The structures appear in SMILES notation. Like-named read-outs stand apart in the source and are kept apart here. Bounds are passed on as bounds.

For the molecule `COc1cc(N)ccc1N1CCN(CCN(C(=O)C2CCCCC2)c2ccccc2OCC(F)(F)F)CC1` [Example 66], the ED (10 min disappearance of contractions) in experiment [1] (setting [4]) was 0.167 mg/kg. Also, the ED50 (commonly the dose at which the effect has come halfway, by size or by number of responders) in experiment [1] (setting [5]) is 0.058 mg/kg. Further, the Ki (commonly the equilibrium dissociation constant of an inhibitor or competing ligand from its target) in experiment [2] was found to be 0.76 nM.

Consider `CCN(CC)CC#CCOC(=O)C(O)(c1ccccc1)C1CCCCC1` (centres unmarked) [Oxybutinin, oxybutynin, reference compound], for which the ED (10 min disappearance of contractions) in experiment [1] (setting [4]) is 7.77 mg/kg. Besides, the ED50 in experiment [1] (extrapolated dose inducing 30% reduction of amplitude of the contractions in 50% of treated rats, intravenous, n.a. = not active, no significant reduction of the height of peaks, read-out: ED50 (amplitude)) was 0.24 mg/kg; in experiment [1] (setting [5]) it was over 10 mg/kg. Moreover, the BVC after treatment in experiment [3] (15 min after i.v. 100 μg/kg) came out at 0.89 ± 0.18 mL; in experiment [3] (15 min after i.v. 300 μg/kg), 0.83 ± 0.12 mL; in experiment [3] (15 min after i.v. 1000 μg/kg), 1.00 ± 0.18 mL. Further, the figures for the MP after treatment in experiment [3] (15 min after i.v. 100 μg/kg) and in experiment [3] (15 min after i.v. 300 μg/kg) were 77.4 ± 10.3 mmHg and 50.5 ± 6.3 mmHg, respectively. Moreover, the change in vivo at 0.1 mg/kg in experiment [3] (read-out: BVC % of change) was 8.5%; in experiment [3] (read-out: MP % of change) it was -18.7%. Further, in experiment [3] (read-out: MP % of change), the change in vivo at 0.3 mg/kg is -38.6%. Moreover, in experiment [3] (conscious rats, i.v.), the “effect on MP (in words)” value was “markedly and dose-dependently decreased MP”.

As to `COc1ccccc1NCCN1CCN(c2ccccc2OC)CC1` [Example 20, 1-[N-(2-methoxyphenyl)-2-aminoethyl]-4-(2-methoxyphenyl)piperazine], in experiment [1] (iv), the ED (10 min disappearance of contractions) is 0.097 mg/kg. In addition, the ED50 in experiment [1] (iv, read-out: ED50 (frequency)) stood at 0.025 mg/kg. Further, the Ki in experiment [2] turned out to be 24.6 nM.

As for `Cc1c(-c2ccccc2)oc2c(C(=O)OCCN3CCCCC3)cccc2c1=O` [Flavoxate, flavoxate, reference compound], the ED (10 min disappearance of contractions) in experiment [1] (setting [4]) is over 10 mg/kg. Moreover, in experiment [3] (15 min after i.v. 300 μg/kg), the BVC after treatment came out at 0.87 ± 0.11 mL and the MP after treatment amounted to 95.0 ± 10.9 mmHg. In experiment [3] (15 min after i.v. 1000 μg/kg), this molecule had a BVC after treatment of 1.11 ± 0.16 mL and an MP after treatment of 80.1 ± 11.1 mmHg. Besides, in experiment [3] (read-out: BVC % of change), the change in vivo at 0.3 mg/kg was found to be 14.5% and the change in vivo at 1 mg/kg stood at 26.1%. For the same molecule, in experiment [3] (read-out: MP % of change), the change in vivo at 0.3 mg/kg is 6.5% and the change in vivo at 1 mg/kg is -11.4%. The “i.v. dose at which a significant increase in BVC was observed” value in experiment [3] (conscious rats, i.v.) was 1.0 mg/kg.

Consider `COc1ccccc1N1CCN(CCN(C(=O)C2CCCCC2)c2ccc([N+](=O)[O-])cc2)CC1` [Compound C, 1-[N-(4-nitrophenyl)-N-cyclohexylcarbonyl-2-aminoethyl]-4-(2-methoxyphenyl)piperazine, reference compound], for which the ED (10 min disappearance of contractions) in experiment [1] (setting [4]) is over 1 mg/kg. Moreover, the ED50 in experiment [1] (setting [5]) was over 1 mg/kg. Further, the “pharmacological activity on bladder voiding contractions (in words)” value in experiment [1] is on record as “pharmacological activity was abolished”.

Regarding `COc1ccccc1N1CCN(CCN(C(=O)C2CCCCC2)c2ccccc2OCC(F)(F)F)CC1` [Example 42, 1-[N-[2-(2,2,2-trifluoroethoxy)phenyl]-N-cyclohexylcarbonyl-2-aminoethyl]-4-(2-methoxyphenyl)piperazine], in experiment [1] (setting [4]), the ED (10 min disappearance of contractions) was 0.033 mg/kg. Also, the ED50 in experiment [1] (setting [5]) is 0.018 mg/kg. Moreover, the BVC after treatment worked out at 0.89 ± 0.15 mL in experiment [3] (15 min after i.v. 300 μg/kg) and 1.00 ± 0.16 mL in experiment [3] (15 min after i.v. 1000 μg/kg). For the same molecule, the MP after treatment in experiment [3] (15 min after i.v. 300 μg/kg) was found to be 66.5 ± 9.9 mmHg; in experiment [3] (15 min after i.v. 1000 μg/kg) it was 70.3 ± 7.8 mmHg. Also, the change in vivo at 0.3 mg/kg was 26.4% in experiment [3] (read-out: BVC % of change) and -20% in experiment [3] (read-out: MP % of change). For the same molecule, the change in vivo at 1 mg/kg in experiment [3] (read-out: BVC % of change) was 41.7%; in experiment [3] (read-out: MP % of change), -9.2%.

As for `COc1ccccc1N1CCN(CCN(C(=O)C2CCCCC2)c2cccc([N+](=O)[O-])c2)CC1` [Compound B, 1-[N-(3-nitrophenyl)-N-cyclohexylcarbonyl-2-aminoethyl]-4-(2-methoxypheny)piperazine, reference compound], the ED10 min in experiment [1] (setting [4]) was over 1 mg/kg. For the same molecule, the “ED50 (frequency)” value in experiment [1] (extrapolated dose inducing a reduction of the number of contractions >30% in 50% of treated rats, intravenous) is over 1 mg/kg. The “pharmacological activity on bladder voiding contractions (in words)” value in experiment [1] is on record as “pharmacological activity was abolished”.

The values above are taken from patent US6399614B1, “1-(N-phenylaminoalkyl)piperazine derivatives substituted at position 2 of the phenyl ring” (Recordati S.A. Chemical and Pharmaceutical Company, priority 1997, dated 2002).
